Measured values: PubChem BioAssay (NCI)
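All cell lines were grown in 96-well plates and treated with compound for 48 hours. The concentration for full growth arrest is given as TGI.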

Experiments:
Assay in all cases: NCI-60 cell line screen, 48 h
786-0 renal = system: 786-0 renal
A498 renal = system: A498 renal
A549 NSCLC = system: A549 NSCLC
ACHN renal = system: ACHN renal
BT-549 breast = system: BT-549 breast
CAKI-1 renal = system: CAKI-1 renal
CCRF-CEM leukemia = system: CCRF-CEM leukemia
COLO 205 colon = system: COLO 205 colon
DU-145 prostate = system: DU-145 prostate
EKVX NSCLC = system: EKVX NSCLC
HCC-2998 colon = system: HCC-2998 colon
HCT-116 colon = system: HCT-116 colon
HCT-15 colon = system: HCT-15 colon
HL-60(TB) leukemia = system: HL-60(TB) leukemia
HOP-62 NSCLC = system: HOP-62 NSCLC
HOP-92 NSCLC = system: HOP-92 NSCLC
HS 578T breast = system: HS 578T breast
HT29 colon = system: HT29 colon
IGROV1 ovarian = system: IGROV1 ovarian
K-562 leukemia = system: K-562 leukemia
KM12 colon = system: KM12 colon
LOX IMVI melanoma = system: LOX IMVI melanoma
M14 melanoma = system: M14 melanoma
MALME-3M melanoma = system: MALME-3M melanoma
MCF7 breast = system: MCF7 breast
MDA-MB-231 breast = system: MDA-MB-231 breast
MDA-MB-435 = system: MDA-MB-435
MDA-N = system: MDA-N
MOLT-4 leukemia = system: MOLT-4 leukemia
NCI-H226 lung = system: NCI-H226 lung
NCI-H23 lung = system: NCI-H23 lung
NCI-H460 lung = system: NCI-H460 lung
NCI-H522 lung = system: NCI-H522 lung
NCI/ADR-RES ovarian = system: NCI/ADR-RES ovarian
OVCAR-3 ovarian = system: OVCAR-3 ovarian
OVCAR-4 ovarian = system: OVCAR-4 ovarian
OVCAR-5 ovarian = system: OVCAR-5 ovarian
OVCAR-8 ovarian = system: OVCAR-8 ovarian
PC-3 prostate = system: PC-3 prostate
RPMI-8226 leukemia = system: RPMI-8226 leukemia
RXF 393 renal = system: RXF 393 renal
SF-268 CNS = system: SF-268 CNS
SF-295 CNS = system: SF-295 CNS
SF-539 CNS = system: SF-539 CNS
SK-MEL-2 melanoma = system: SK-MEL-2 melanoma
SK-MEL-28 melanoma = system: SK-MEL-28 melanoma
SK-OV-3 ovarian = system: SK-OV-3 ovarian
SN12C renal = system: SN12C renal
SNB-19 CNS = system: SNB-19 CNS
SNB-75 CNS = system: SNB-75 CNS
SR leukemia = system: SR leukemia
SW-620 colon = system: SW-620 colon
T-47D breast = system: T-47D breast
TK-10 renal = system: TK-10 renal
U251 CNS = system: U251 CNS
UACC-257 melanoma = system: UACC-257 melanoma
UACC-62 melanoma = system: UACC-62 melanoma
UO-31 renal = system: UO-31 renal

Q: `NC(=O)c1ccc(N)nc1` was tested. Which TGI (786-0 renal) did it give?
A: Its TGI is over 400 µM.

Q: And the TGI (A498 renal)?
A: Its TGI is over 400 µM.

Q: And the TGI (A549 NSCLC)?
A: Its TGI is over 400 µM.

Q: What about the TGI (ACHN renal) of the same molecule?
A: The TGI was over 400 µM.

Q: And the TGI (BT-549 breast)?
A: The TGI was over 400 µM.

Q: And the TGI (CAKI-1 renal)?
A: The TGI was over 400 µM.

Q: What about the TGI (CCRF-CEM leukemia) of the same molecule?
A: The TGI was 394 µM.

Q: And the TGI (COLO 205 colon)?
A: The TGI was over 400 µM.

Q: What about the TGI (DU-145 prostate) of the same molecule?
A: Its TGI is over 400 µM.

Q: And the TGI (EKVX NSCLC)?
A: Its TGI is over 400 µM.

Q: What about the TGI (HCC-2998 colon) of the same molecule?
A: The TGI was over 400 µM.

Q: What about the TGI (HCT-116 colon) of the same molecule?
A: Its TGI is over 400 µM.

Q: What about the TGI (HCT-15 colon) of the same molecule?
A: The TGI was over 400 µM.

Q: What about the TGI (HL-60(TB) leukemia) of the same molecule?
A: The TGI was over 400 µM.

Q: And the TGI (HOP-62 NSCLC)?
A: The TGI was over 247 µM.

Q: And the TGI (HOP-92 NSCLC)?
A: Its TGI is over 400 µM.

Q: And the TGI (HS 578T breast)?
A: Its TGI is over 400 µM.

Q: And the TGI (HT29 colon)?
A: The TGI was over 229 µM.

Q: And the TGI (IGROV1 ovarian)?
A: The TGI was over 400 µM.

Q: And the TGI (K-562 leukemia)?
A: Its TGI is over 400 µM.

Q: And the TGI (KM12 colon)?
A: Its TGI is over 400 µM.

Q: What about the TGI (LOX IMVI melanoma) of the same molecule?
A: The TGI was over 400 µM.

Q: And the TGI (M14 melanoma)?
A: Its TGI is over 400 µM.

Q: And the TGI (MALME-3M melanoma)?
A: Its TGI is over 400 µM.

Q: What about the TGI (MCF7 breast) of the same molecule?
A: The TGI was over 400 µM.

Q: What about the TGI (MDA-MB-231 breast) of the same molecule?
A: Its TGI is over 400 µM.

Q: And the TGI (MDA-MB-435)?
A: The TGI was over 400 µM.

Q: What about the TGI (MDA-N) of the same molecule?
A: The TGI was over 400 µM.

Q: What about the TGI (MOLT-4 leukemia) of the same molecule?
A: Its TGI is over 400 µM.

Q: What about the TGI (NCI-H226 lung) of the same molecule?
A: Its TGI is over 400 µM.

Q: What about the TGI (NCI-H23 lung) of the same molecule?
A: Its TGI is over 400 µM.

Q: And the TGI (NCI-H460 lung)?
A: The TGI was over 400 µM.

Q: And the TGI (NCI-H522 lung)?
A: The TGI was over 400 µM.

Q: What about the TGI (NCI/ADR-RES ovarian) of the same molecule?
A: Its TGI is over 400 µM.

Q: And the TGI (OVCAR-3 ovarian)?
A: Its TGI is over 400 µM.

Q: And the TGI (OVCAR-4 ovarian)?
A: Its TGI is over 400 µM.

Q: What about the TGI (OVCAR-5 ovarian) of the same molecule?
A: Its TGI is over 400 µM.

Q: What about the TGI (OVCAR-8 ovarian) of the same molecule?
A: Its TGI is over 400 µM.

Q: What about the TGI (PC-3 prostate) of the same molecule?
A: Its TGI is over 400 µM.

Q: And the TGI (RPMI-8226 leukemia)?
A: Its TGI is 201 µM.

Q: What about the TGI (RXF 393 renal) of the same molecule?
A: The TGI was 864 nM.

Q: What about the TGI (SF-268 CNS) of the same molecule?
A: Its TGI is over 400 µM.

Q: And the TGI (SF-295 CNS)?
A: Its TGI is over 400 µM.

Q: What about the TGI (SF-539 CNS) of the same molecule?
A: Its TGI is 28.3 µM.

Q: What about the TGI (SK-MEL-2 melanoma) of the same molecule?
A: Its TGI is over 400 µM.

Q: And the TGI (SK-MEL-28 melanoma)?
A: The TGI was over 400 µM.

Q: What about the TGI (SK-OV-3 ovarian) of the same molecule?
A: The TGI was over 400 µM.

Q: What about the TGI (SN12C renal) of the same molecule?
A: Its TGI is over 400 µM.

Q: And the TGI (SNB-19 CNS)?
A: Its TGI is over 400 µM.

Q: And the TGI (SNB-75 CNS)?
A: Its TGI is over 125 µM.

Q: And the TGI (SR leukemia)?
A: The TGI was over 400 µM.

Q: What about the TGI (SW-620 colon) of the same molecule?
A: Its TGI is over 400 µM.

Q: And the TGI (T-47D breast)?
A: The TGI was over 400 µM.

Q: And the TGI (TK-10 renal)?
A: The TGI was over 400 µM.

Q: And the TGI (U251 CNS)?
A: Its TGI is over 400 µM.

Q: And the TGI (UACC-257 melanoma)?
A: The TGI was over 400 µM.

Q: And the TGI (UACC-62 melanoma)?
A: The TGI was over 400 µM.

Q: What about the TGI (UO-31 renal) of the same molecule?
A: Its TGI is over 400 µM.
